Measured values as given in US20240009149A1, “NON-AQUEOUS GEL COMPOSITION” (Acousia Therapeutics GmbH, priority 2020, published 2024).

How the values were obtained:
Type in all cases: physicochemical
[1] = Particle Size Distribution (Malvern MasterSizer, laser diffraction)
Experimental: The mean particle size distribution is preferably obtained by laser diffraction. During a laser diffraction measurement a laser beam passes through a dispersed particulate sample and the angular variation in intensity of the scattered light is measured. Large particles scatter light at small angles relative to the laser beam and small particles scatter light at large angles. The angular scattering intensity data is then analyzed to calculate the size of the particles that created the scattering pattern using the Mie theory of light scattering. The particle size is reported as a volume equivalent sphere diameter. The folded optical design in the Mastersizer 3000 (from Malvern Panalytical), which was in particular used for the measurements provides a particle size measurement range from 10 nm up to 3.5 mm using a single optical measurement path. The Mastersizer 3000 uses a sequential combination of measurements with red and blue light sources to measure across the entire particle size range.
In some embodiments, the PSD (Particle Size Distribution) of the pharmaceutically active agent was measured with a Malvern MasterSizer 2000 or 3000 (in water as dispersion medium, stirrer speed 1500 rpm, Mie presentation) to give the following results (table 11). […] Some of the grinded batches are reported with the full PSD profile in FIG. 5: […]

[2] = impurity profile by HPLC prior and after gamma irradiation
[3] = solubility in water at room temperature; conditions: for Biopharmaceutics Classification System class: classified from low water solubility; for solubility: water, 24 °C, 22-26° C.
[4] = FIG. 5 lower illustration, micronized sample, jet mill
[5] = FIG. 5 middle illustration, manual grinded sample
[6] = FIG. 5 upper illustration, manual grinded sample
[7] = Gamma irradiated at 49.6 KGy under dry ice

## O=C(NCc1cccc(S(F)(F)(F)(F)F)c1)[C@H]1C[C@@H]2CC[C@H]1C2 [Compound B, (1S,2S,4R)-N-(3-(pentafluoro-λ6-sulfaneyl)benzyl)bicyclo[2.2.1]heptane-2-carboxamide]
[1]; [4]
  d10: 3.4 microns
  d50: 12.4 microns
  d90: 26.3 microns
[1]; [5]
  d10: 6.5 microns
  d50: 32 microns
  d90: 72 microns
[1]; [6]
  d10: 4.4 microns
  d50: 18 microns
  d90: 44 microns
[1]; in the gel versus after grinding
  PSD of the active ingredient in the non-aqueous gel composition: remained unchanged
[2]; Gamma irradiated at 49.6 KGy
  *Imp. 8. rel.tR = 0.95: 3.29 Area %
  Imp. 1. rel.tR = 0.22: 0.11 Area %
  Imp. 2. rel.tR = 0.37: 0.11 Area %
  Imp. 3. rel.tR = 0.48: 0.24 Area %
  Imp. 4. rel.tR = 0.52: 0.12 Area %
  Imp. 5. rel.tR = 0.54: 0.08 Area %
  Imp. 6. rel.tR = 0.58: 0.14 Area %
  Imp. 7. rel.tR = 0.71: 0.39 Area %
  Imp. 9. rel.tR = 1.27: 0.32 Area %
  Imp. 10. rel.tR = 1.80: 0.06 Area %
  Sum of impurities: 4.86 Area %
  impurity Increase compared to initial: +1.25 Area %
[2]; [7]
  *Imp. 8. rel.tR = 0.95: 3.35 Area %
  Imp. 1. rel.tR = 0.22: 0.23 Area %
  Imp. 2. rel.tR = 0.37: 0.03 Area %
  Imp. 3. rel.tR = 0.48: 0.12 Area %
  Imp. 4. rel.tR = 0.52: 0.12 Area %
  Imp. 5. rel.tR = 0.54: 0.05 Area %
  Imp. 6. rel.tR = 0.58: 0.15 Area %
  Imp. 7. rel.tR = 0.71: 0.34 Area %
  Imp. 9. rel.tR = 1.27: 0.20 Area %
  Sum of impurities: 4.59 Area %
  impurity Increase compared to initial: +0.98 Area %
[2]; Initial API
  *Imp. 8. rel.tR = 0.95: 3.48 Area %
  Imp. 3. rel.tR = 0.48: 0.13 Area %
  Imp. 4. rel.tR = 0.52: <0.05 Area %
  Imp. 7. rel.tR = 0.71: <0.05 Area %
  Sum of impurities: 3.61 Area %
[2]; standard conditions, dry ice used for cooling
  effect of gamma irradiation on the quality of the active ingredient: only minor effects
[3]
  Biopharmaceutics Classification System class: BCS class II
  solubility: < 1000 µg/mL

## O=C(NCc1cccc(S(F)(F)(F)(F)F)c1)[C@H]1C[C@@H]2CC[C@H]1C2 (racemic) [Compound A, (1SR,2SR,4RS)-N-(3-(pentafluoro-λ6-sulfanyl)benzyl)bicyclo[2.2.1]heptane-2-carboxamide]
[3]
  Biopharmaceutics Classification System class: BCS class II
  solubility: < 1000 µg/mL
